Test [1] deals with DLD-1 WT cells. As to the kind of experiment: DLD-1 WT proliferation under hypoxia or normoxia. To be noted: Homo sapiens; WT DLD-1 cells, hypoxic conditions (1% oxygen). Format: cell-based.
Test [2] concerns PC3 cells. As to the kind of experiment: PC3 proliferation under hypoxia or normoxia ([3H]-thymidine incorporation). Format: cell-based, human. The note with it: for IC50: Homo sapiens, PC-3, 48 h, 48 h post treatment. The method, then:
Proliferation and viability assays. [^3H]-thymidine incorporation. HEK293T cells (10,000 cells/well) were seeded into 96-well plates then cultured in DMEM plus 10% FBS and 1% penicillin/streptomycin at 37° C. with 5% CO2 overnight. Drugs were added at indicated concentrations and incubation was continued for an additional 24 h. For hypoxia, PC3 (5,000 cells/well) were exposed to 1% O2 (Airgas) in a humidified hypoxia chamber (Billups-Rothenberg) in 37° C. for 48 h prior to drug exposure for 48 h. Treated cells were then pulsed using an aliquot of 1 μCi of [^3H]-thymidine (Perkin Elmer) per well for an additional 6 h. Radiolabelled cells were harvested onto a printed Filtermat A glass fiber filter (Perkin Elmer) using a Tomtec Harvester 96 Mach III M. Betaplate Scint (Perkin Elmer) scintillation fluid was added to radiolabelled filters followed by scintillation counting on Microbeta2 LumiJET Microplate Counter (Perkin Elmer).

In test [3] the test system is RPB1 in C342T XPB mutant cell line. Put plainly: RPB1 degradation in C342T XPB knock-in cells, western blot. Format: cell-based, human. The note with it: C342T XPB mutant cell line, compound 1 up to 3 mM (so in the source). The source says:
(§1) Cells and culture conditions. Primary astrocytes (Lonza, Walkersville, Md.; ABM™ Basal Media with AGM™ SingleQuots™ Supplement Pack), fibroblast (ATCC; Fibroblast Basal Medium (ATCC© PCS-201-030™) with Fibroblast Growth Kit-Serum-free (ATCC© PCS-201-040™)), airway epithelial cell (ATCC; Airway Epithelial Cell Basal Medium (ATCC© PCS-300-030™) with Bronchial Epithelial Cell Growth Kit (ATCC© PCS-300-040™)), renal proximal tubule (ATCC; Renal Epithelial Cell Basal Medium (ATCC© PCS-400-030™) with Renal Epithelial Cell Growth Kit (ATCC© PCS-400-040™)), prostate epithelial cell (Lonza; PrEGM™ BulletKit™) and mammary epithelial cell (Lonza; MEBM™ BulletKit™) were kept in a humidified incubator at 37° C. adjusted to 5% CO2. […]
Western blot analysis. […] Antibody-protein complexes were detected using enhanced chemiluminescence (ECL) immunoblotting detection reagent (EMD Millipore).

In test [4] the test system is PC3. Put plainly: XTT viability assay, PC3. Format: cell-based. To be noted: Homo sapiens, PC-3, Prostate Cancer.
Source text: as §1
XTT assay. […] Cell viability was measured using the R&D Systemsm TACS XTT Cell Proliferation/Viability Assay (R&D Systems, Minneapolis, Minn.).

As to `CC(C)[C@]12O[C@H]1[C@@H]1O[C@]13[C@]1(O[C@H]1C[C@H]1C4=C(CC[C@@]13C)C(=O)OC4)[C@@H]2OC(=O)CCCO[C@@H]1OC(CO)[C@@H](O)C(O)C1O` (stereo in doubt) [Compound 1], the IC50 is 1300 nM in test [1]; 81 nM in test [2] (PC3, hypoxic conditions (1% O2)); 427 nM in test [2] (PC3, normoxic conditions (20% O2)). Besides, the “fold enhancement of anti-proliferative effect during hypoxia” value in test [2] (PC3, hypoxia versus normoxia) was “five-fold”. Moreover, in test [3], the RPB1 level entry is on record as “remained stable”.
Compound `CC(C)[C@]12O[C@H]1[C@@H]1O[C@]13[C@]1(O[C@H]1C[C@H]1C4=C(CC[C@@]13C)C(=O)OC4)[C@@H]2OC(=O)CCC(=O)O[C@@H]1OC(CO)[C@@H](O)C(O)C1O` (stereo partly drawn) [Compound 10] registered an IC50 in test [4] of 500 ± 100 nM.

For the origin of these results see patent US20230134986A1, “GLUCOSE TRIPTOLIDE CONJUGATES AND USES THEREOF” (The Johns Hopkins University, priority 2020, published 2023).
